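Protocol summary: plate cells (96-well), add compound at 5 concentrations, incubate 48 h, interpolate endpoints linearly. Here, GI50 denotes the concentration required for 50% inhibition of growth.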 Active and inactive are the calls of the source. Rule as the data show it: active = GI50 up to about 1.1 µM and inactive = higher.
Key:
Assay in all cases: NCI anticancer screen, dose series, 48 h
[1] = system: 786-0
[2] = system: ACHN
[3] = system: BT-549
[4] = system: COLO 205
[5] = system: DU-145
[6] = system: HCT-15
[7] = system: HOP-92
[8] = system: HT-29
[9] = system: Hs-578T
[10] = system: KM12
[11] = system: MCF7
[12] = system: MDA-MB-231
[13] = system: MDA-MB-435
[14] = system: NCI-H460
[15] = system: OVCAR-5
[16] = system: SF-295
[17] = system: SK-MEL-2
[18] = system: SK-MEL-5
[19] = system: UACC-257
[20] = system: UO-31

| Structure (SMILES) | GI50 [1] | GI50 [2] | GI50 [3] | GI50 [4] | GI50 [5] | GI50 [6] [µM] | GI50 [7] | GI50 [8] | GI50 [9] | GI50 [10] | GI50 [11] | GI50 [12] | GI50 [13] | GI50 [14] | GI50 [15] | GI50 [16] | GI50 [17] | GI50 [18] | GI50 [19] | GI50 [20] |
| --- | --- | --- | --- | --- | --- | --- | --- | --- | --- | --- | --- | --- | --- | --- | --- | --- | --- | --- | --- | --- |
| CC(C)(C)c1cc(O)ccc1O [E319] | > 54.8 µM (inactive) | > 85.5 µM (inactive) | > 100 µM (inactive) | > 74.6 µM (inactive) | 10.1 µM (inactive) | > 100 | > 67.5 µM (inactive) | > 100 µM (inactive) | > 24 µM (inactive) | > 100 µM (inactive) | > 100 µM (inactive) | 1.86 µM (inactive) | > 56.8 µM (inactive) | > 12.8 µM (inactive) | > 100 µM (inactive) | > 100 µM (inactive) | 1.71 µM (inactive) | > 100 µM (inactive) | 9.08 µM (inactive) | > 58.6 µM (inactive) |
| O=Nc1c(-c2c(O)[nH]c3ccccc23)[nH]c2ccccc12 [INDIRUBIN-3-MONOXIME] | 7.57 µM (inactive) | 1.94 µM (inactive) | 8.11 µM (inactive) | 12.5 µM (inactive) | 2.63 µM (inactive) | 2.48 | 8.77 µM (inactive) | 7.14 µM (inactive) | 4.47 µM (inactive) | 0.0865 µM (active) | 3.13 µM (inactive) | 3.38 µM (inactive) | 3.79 µM (inactive) | 3.53 µM (inactive) | 7.26 µM (inactive) | 10.1 µM (inactive) | 1.91 µM (inactive) | 3.99 µM (inactive) | 18.3 µM (inactive) | 2.38 µM (inactive) |
